{"source": "paper PMC9385722", "about": "(Scientific Reports, 2022)", "biological_target": "T1, TaHeR (Thermoplasmatales archaeon SG8-52-1, UniProt Z9O312AX90)", "T1 construct": "wild type, N-terminal 6xHis tag, pET21a(+), E. coli C43(DE3), purified in octyl glucoside; symmetric dimer, one protomer in asymmetric unit", "T1 sequence (Z9O312AX90 1-259)": "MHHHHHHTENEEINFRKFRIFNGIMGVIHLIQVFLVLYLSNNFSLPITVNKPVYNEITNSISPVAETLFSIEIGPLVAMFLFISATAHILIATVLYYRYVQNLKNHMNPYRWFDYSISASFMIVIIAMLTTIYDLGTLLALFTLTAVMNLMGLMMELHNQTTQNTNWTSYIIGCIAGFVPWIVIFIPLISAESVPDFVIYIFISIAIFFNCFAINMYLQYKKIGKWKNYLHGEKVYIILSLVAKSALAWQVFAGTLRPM", "assay": "absorption red-shift titration with NaCl", "assay_type": "binding", "conditions": "pH 5.0, up to 300 mM NaCl; anion site in Schiff base cavity near protonated Glu-108; crystal structure at pH 4.5 also shows a second, extracellular chloride", "data": [{"smiles": "Cl", "note": "[chloride]", "values": [{"measurement": "Kd", "result": "~67", "unit": "mM"}]}]}
